What was measured:
[1] = tested on: primary cultured guinea-pig urinary bladder (GPB) cells; assay: Membrane hyperpolarization (MHP) assay, DiBAC(4)3 / FLIPR; format: cell-based; details: Cavia porcellus; membrane hyperpolarization in guinea-pig bladder cells
Protocol: Compounds were evaluated for potassium channel opening activity using primary cultured guinea-pig urinary bladder (GPB) cells.
For the preparation of urinary bladder smooth muscle cells, urinary bladders were removed from male guinea-pigs (Hartley, Charles River, Wilmington, Mass.) weighing 300-400 g and placed in ice-cold Ca^2+-free Krebs solution (composition, mM: KCl, 2.7; KH2PO4, 1.5; NaCl, 75; Na2HPO4, 9.6; Na2HPO4.7H2O, 8; MgSO4, 2; glucose, 5; HEPES, 10; pH 7.4). Cells were isolated by enzymatic dissociation as previously described with minor modifications (Klockner and Isenberg, Pflugers Arch. (1985), 405, 329-339), hereby incorporated by reference. The bladder was cut into small sections and incubated in 5 mL of the Kreb's solution containing 1 mg/mL collagenase (Sigma, St. Louis, Mont.) and 0.2 mg/mL pronase (Calbiochem, La Jolla, Calif.) with continuous stirring in a cell incubator for 30 minutes. The mixture was then centrifuged at 1300× g for 5 minutes, and the pellet resuspended in Dulbecco's PBS (GIBCO, Gaithersburg, Md.) and recentrifuged to remove residual enzyme. The cell pellet was resuspended in 5 mL growth media (composition: Dulbecco's modified Eagle's medium supplemented with 10% fetal bovine serum, 100 units/mL penicillin, 100 units/mL streptomycin and […] amphotericin B) and further dissociated by pipetting the suspension through a flame-polished Pasteur pipette and passing it through a polypropylene mesh membrane (Spectrum, Houston, Tex.). The cell density was adjusted to 100,000 cells/mL by resuspension in growth media. Cells were plated in clear-bottomed black 96-well plates (Packard) for membrane potential studies at a density of 20,000 cells/well and maintained in a cell incubator with 90% air:10% CO2 until confluent. Cells were confirmed to be of smooth muscle type by cytoskeletal staining using a monoclonal mouse anti human-α-smooth muscle actin (Biomeda, Foster City, Calif.).
Functional activity at potassium channels was measured by evaluating changes in membrane potential using the bis-oxonol dye DiBAC(4)3 (Molecular Probes) in a 96-well cell-based kinetic assay system, Fluorescent Imaging Plate Reader (FLIPR) (K. S. Schroeder et al., J. Biomed. Screen., v. 1 pp. 7581 (1996)), hereby incorporated by reference. DiBAC(4)3 is an anionic potentiometric probe which partitions between cells and extracellular solution in a membrane potential-dependent manner. With increasing membrane potential (for example, K^+ depolarization), the probe further partitions into the cell; this is measured as an increase in fluorescence due to dye interaction with intracellular lipids and proteins. Conversely, decreasing membrane potential (hyperpolarization by potassium channel openers) evokes a decrease in fluorescence.
Confluent guinea-pig urinary bladder cells cultured in black clear-bottomed 96-well plates were rinsed twice with […] assay buffer (composition, mM: HEPES, 20; NaCl, 120; KCl, 2; CaCl2, 2; MgCl2, 1; glucose, 5; pH 7.4 at 25° C.) containing 5 μM DiBAC(4)3 and incubated with […] of the buffer in a cell incubator for 30 minutes at 37° C. to ensure dye distribution across the membrane. After recording the baseline fluorescence for 5 minutes, the reference or test compounds, prepared at 10 times the concentration in the assay buffer, were added directly to the wells. Changes in fluorescence were monitored for an additional 25 minutes. Hyperpolarization responses were corrected for any background noise and were normalized to the response observed with 10 μM of the reference compound P1075 (assigned as 100%), a potent opener of smooth muscle KATP channels (Quast et al., Mol. Pharmacol., v. 43 pp. 474-481 (1993)).
Routinely, five concentrations of P1075 or test compounds (log or half-log dilutions) were evaluated and the maximal steady-state hyperpolarization values (expressed as % relative to P1075) plotted as a function of concentration. […]

[2] = tested on: tissue strips obtained from Landrace pig bladders; assay: Functional potassium channel opening activity in isolated bladder strips (field-stimulated twitch); details: for EC50 / Emax: Sus scrofa; for EC50: amount causing 50% of the agent's maximal response, read-out: ED50 (the source's name); for Emax: maximal efficacy relative to P1075, field stimulation 0.05 Hz
Protocol: Compounds were evaluated for functional potassium channel opening activity using tissue strips obtained from Landrace pig bladders.
Landrace pig bladders were obtained from female Landrace pigs of 930 kg. Landrace pigs were euthanized with an intraperitoneal injection of pentobarbital solution, Somlethal®, J. A. Webster Inc., Sterling Mass. The entire bladder was removed and immediately placed into Krebs Ringer bicarbonate solution (composition, mM: NaCl, 120; NaHCO3, 20; dextrose, 11; KCl, 4.7; CaCl2, 2.5; MgSO4, 1.5; KH2PO4, 1.2; K2EDTA, 0.01, equilibrated with 5% CO2/95% O2pH 7.4 at 37° C.). Propranolol (0.004 mM) was included in all of the assays to block β-adrenoceptors. The trigonal and dome portions were discarded. Strips 3-5 mm wide and 20 mm long were prepared from the remaining tissue cut in a circular fashion. The mucosal layer was removed. One end was fixed to a stationary glass rod and the other to a Grass FT03 transducer at a basal preload of 1.0 gram. Two parallel platinum electrodes were included in the stationary glass rod to provide field stimulation of 0.05 Hz, 0.5 milli-seconds at 20 volts. This low frequency stimulation produced a stable twitch response of 100-500 centigrams. Tissues were allowed to equilibrate for at least 60 minutes and primed with 80 mM KCl. A control concentration response curve (cumulative) was generated for each tissue using the potassium channel opener P1075 as the control agonist. […] After a 60 minute rinsing period, a concentration response curve (cumulative) was generated for the test agonist in the same fashion as that used for the control agonist P1075. The maximal efficacy of each compound (expressed as % relative to P1075) is reported. The amount of agent necessary to cause 50% of the agent's maximal response (ED50) was calculated using “ALLFIT” (DeLean et al., Am. J. Physiol., 235, E97 (1980)), hereby incorporated by reference. Agonist potencies were also expressed as an index relative to P1075. The index was calculated by dividing the ED50 for P1075 by the ED50 for the test agonist in a given tissue. Each tissue was used for only one test agonist, and the indices obtained from each tissue were averaged to provide an average index of potency.

Compound | EC50 [1] [nM] | EC50 ([2]; Landrace pig bladder strips) [nM] | Emax ([2]; Landrace pig bladder strips) [%] | Index ([2]; ED50 for P1075 divided by ED50 for the test agonist in a given tissue, averaged) | effect on stimulated twitch / stimulated contractions of the bladder ([2]; Landrace pig bladder strips, P1075 over 10^−9 to 10^−5 M)
Cc1ccc(C(=O)NC(Nc2c(Nc3cccnc3)c(=O)c2=O)C(C)(C)C)cc1 (centres unmarked) [Example 1, N-(1-{[3,4-dioxo-2-(3-pyridinylamino)-1-cyclobuten-1-yl]amino}-2,2-dimethylpropyl)-4-methylbenzamide] | 150 | 19000 | 54 | – | –
CC(C)(C)C(NC(=O)c1ccc(Cl)cc1)Nc1c(Nc2cccnc2)c(=O)c1=O (centres unmarked) [Example 2, 4-chloro-N-(1-{[3,4-dioxo-2-(3-pyridinylamino)-1-cyclobuten-1-yl]amino}-2,2-dimethylpropyl)benzamide] | 160 | 6900 | 79 | – | –
CC(C)(C)C(NC(=O)c1ccc(I)cc1)Nc1c(Nc2cccnc2)c(=O)c1=O (centres unmarked) [Example 3, N-(1-{[3,4-dioxo-2-(3-pyridinylamino)-1-cyclobuten-1-yl]amino}-2,2-dimethylpropyl)-4-iodobenzamide] | – | 2200 | 73 | – | –
CC(C)(C)C(NC(=O)c1cccc(Cl)c1)Nc1c(Nc2cccnc2)c(=O)c1=O (centres unmarked) [Example 5, 3-chloro-N-(1-{[3,4-dioxo-2-(3-pyridinylamino)-1-cyclobuten-1-yl]amino}-2,2-dimethylpropyl)benzamide] | – | 380 | 98 | – | –
Cc1cccc(C(=O)NC(Nc2c(Nc3cccnc3)c(=O)c2=O)C(C)(C)C)c1 (centres unmarked) [Example 6, N-(1-{[3,4-dioxo-2-(3-pyridinylamino)-1-cyclobuten-1-yl]amino}-2,2-dimethylpropyl)-3-methylbenzamide] | – | 1000 | 100 | – | –
CC(C)(C)C(NC(=O)c1cccc(F)c1)Nc1c(Nc2cccnc2)c(=O)c1=O (centres unmarked) [Example 7, N-(1-{[3,4-dioxo-2-(3-pyridinylamino)-1-cyclobuten-1-yl]amino}-2,2-dimethylpropyl)-3-fluorobenzamide] | – | 8400 | 89 | – | –
CC(C)(C)C(NC(=O)c1cccc(I)c1)Nc1c(Nc2cccnc2)c(=O)c1=O (centres unmarked) [Example 8, N-(1-{[3,4-dioxo-2-(3-pyridinylamino)-1-cyclobuten-1-yl]amino}-2,2-dimethylpropyl)-3-iodobenzamide] | – | 2800 | 84 | – | –
CC(C)(C)C(NC(=O)c1cc(Cl)cc(Cl)c1)Nc1c(Nc2cccnc2)c(=O)c1=O (centres unmarked) [Example 12, 3,5-dichloro-N-(1-{[3,4-dioxo-2-(3-pyridinylamino)-1-cyclobuten-1-yl]amino}-2,2-dimethylpropyl)benzamide] | – | 2600 | 78 | – | –
COc1cc(OC)cc(C(=O)NC(Nc2c(Nc3cccnc3)c(=O)c2=O)C(C)(C)C)c1 (centres unmarked) [Example 13, N-(1-{[3,4-dioxo-2-(3-pyridinylamino)-1-cyclobuten-1-yl]amino}-2,2-dimethylpropyl)-3,5-dimethoxybenzamide] | – | 370 | 75 | – | –
CC(C)(C)C(NC(=O)c1cc(F)cc(F)c1)Nc1c(Nc2cccnc2)c(=O)c1=O (centres unmarked) [Example 16, N-(-1-{[3,4-dioxo-2-(3-pyridinylamino) 1-cyclobuten-1-yl]amino}-2,2-dimethylpropyl)-3,5-difluorobenzamide] | – | 3800 | 94 | – | –
CCC(CC)(CCC#N)C(NC(=O)c1ccc(Cl)cc1)Nc1c(Nc2cccnc2)c(=O)c1=O (centres unmarked) [Example 19, 4-chloro-N-(4-cyano-1-{[3,4-dioxo-2-(3-pyridinylamino)-1-cyclobuten-1-yl]amino}-2,2-diethylbutyl)benzamide] | > 10000 | – | – | – | –
C=CCOCC(CC)(COCC=C)C(NC(=O)c1ccc(Cl)cc1)Nc1c(Nc2cccnc2)c(=O)c1=O (centres unmarked) [Example 20, N-(2,2-bis[(allyloxy)methyl]-1-{[3,4-dioxo-2-(3-pyridinylamino)-1-cyclobuten-1-yl]amino}butyl)-4-chlorobenzamide] | 580 | – | – | – | –
CCC(CC)C(NC(=O)c1ccc(Cl)cc1)Nc1c(Nc2cccnc2)c(=O)c1=O (centres unmarked) [Example 21, 4-chloro-N-(1-{[3,4-dioxo-2-(3-pyridinylamino)-1-cyclobuten-1-yl]amino}-2-ethylbutyl)benzamide] | – | 4000 | 68 | – | –
O=C(NC(Nc1c(Nc2cccnc2)c(=O)c1=O)C(F)(F)C(F)(F)F)c1cccc(Cl)c1 (centres unmarked) [Example 26, 3-chloro-N-(1-{[3,4-dioxo-2-(3-pyridinylamino)-1-cyclobuten-1-yl]amino}-2,2,3,3,3-pentafluoropropyl)benzamide] | – | 420 | 64 | – | –
CC(C)(C)C(NC(=O)c1ccc(Cl)cc1)Nc1c(Nc2cccnc2Cl)c(=O)c1=O (centres unmarked) [Example 29, 4-chloro-N-[1-({2-[(2-chloro-3-pyridinyl)amino]-3,4-dioxo-1-cyclobuten-1-yl}amino)-2,2-dimethylpropyl]benzamide] | – | 3000 | 81 | – | –
CC(C)(Cc1ccccc1)C(NC(=O)c1ccc(Cl)cc1)Nc1c(Nc2cccnc2Cl)c(=O)c1=O (centres unmarked) [Example 31, 4-chloro-N-[1-({2-[(2-chloro-3-pyridinyl)amino]-3,4-dioxo-1-cyclobuten-1-yl}amino)-2,2-dimethyl-3-phenylpropyl]benzamide] | – | 2900 | 76 | 0.039 | –
Cc1cccc(C(=O)NC(Nc2c(Nc3cccnc3Cl)c(=O)c2=O)C(C)(C)C)c1 (centres unmarked) [Example 32, N-[1-({2-[(2-chloro-3-pyridinyl)amino]-3,4-dioxo-1-cyclobuten-1-yl}amino)-2,2-dimethylpropyl]-3-methylbenzamide] | – | 1300 | 99 | – | –
CC(C)(C)C(NC(=O)CCc1ccccc1)Nc1c(Nc2cccnc2)c(=O)c1=O (centres unmarked) [Example 36, N-(1-{[3,4-dioxo-2-(3-pyridinylamino)-1-cyclobuten-1-yl]amino}-2,2-dimethylpropyl)-3-phenylpropanamide] | – | 970 | 99 | – | –
CCC(C)(C)N=C(NC#N)Nc1cccnc1 [Example P1075, reference compound] | – | – | – | – | completely eliminated the stimulated twitch
